Results reported in patent US7906522B2, “2-aminoquinazoline derivatives” (Kyowa Hakko Kirin Co., Ltd, priority 2005, dated 2011).

Each compound was assayed against T1, Activated human p38α (Homo sapiens, UniProt Q16539) (assay: p38MAP kinase inhibition test). Details: at a concentration of 1 μmol/L; substrate myelin basic protein, ATP 20 μmol/L, [γ-32P]ATP; read-out: enzyme inhibitory activity.
T1 construct: purchased Upstate Biotechnology Inc. 14-251
Type: biochemical
Protocol: p38MAP Kinase Inhibition Test
Activated human p38α was purchased from Upstate Biotechnology Inc. (Catalog No. 14-251). P38MAP kinase inhibitory activity was measured by the procedure described below with reference to the method by Whitmarsh A. J. and Davis R. J. [Methods in Enzymology (Method. Enzymol.), vol. 332, p. 319-336 (2001)]. As the substrate to be phosphorylated, a myelin basic protein (Catalog No. 133-13493, Wako Pure Chemical Industries, Ltd.) (20 μg/assay) was used. The reaction was carried out in a solution containing 3-[N-Morpholino]propanesulfonic acid (MOPS) (20 mmol/L, pH 7.2), β-glycerophosphoric acid (Sigma Corp.) (25 mmol/L), ethylenebis(oxyethylenenitrilo)tetraacetic acid (EGTA) (1 mmol/L), […] (Sigma-Aldrich Corp.) (1 mmol/L), dithiothreitol (DTT, Wako Pure Chemical Industries, Ltd.) (1 mmol/L), adenosine 5′-triphosphate (ATP, Sigma Corp.) (20 μmol/L), and MgCl2 (18.75 mmol/L) (total 40 μL/assay). The reaction was started by adding human p38α and [γ-^32P]ATP (1 μCi/assay), and incubation was performed at 30° C. for 15 minutes. The reaction was terminated by adding 4.5% v/v phosphoric acid (10 μL/well). Then, 45 μL of the reaction mixture was adsorbed onto phosphocellulose paper (p81 paper, Code No. 3698023, Whatman International, Maidstone, UK). The phosphocellulose paper was washed with 0.75% v/v phosphoric acid. Then, the radioactivity of the phosphorylated myelin basic protein ([^32P]) remaining on the phosphocellulose paper was measured with a scintillation counter (TRI-CARB2700TR, PerkinElmer, Boston, Mass., USA) using program No. 27 (data mode: cpm, measurement time: 1 min, Background substract: none, energy range measured: LL 0.0-UL 2000) or a scintillation counter (LS6500, BeckmanCoulter, Fullerton, Calif., USA) using program No. 17 (data mode: cpm, measurement time: 1 min, Background substract: none, energy range measured: high). The test compound was dissolved in DMSO before addition.

T1 sequence (Q16539 whole entry): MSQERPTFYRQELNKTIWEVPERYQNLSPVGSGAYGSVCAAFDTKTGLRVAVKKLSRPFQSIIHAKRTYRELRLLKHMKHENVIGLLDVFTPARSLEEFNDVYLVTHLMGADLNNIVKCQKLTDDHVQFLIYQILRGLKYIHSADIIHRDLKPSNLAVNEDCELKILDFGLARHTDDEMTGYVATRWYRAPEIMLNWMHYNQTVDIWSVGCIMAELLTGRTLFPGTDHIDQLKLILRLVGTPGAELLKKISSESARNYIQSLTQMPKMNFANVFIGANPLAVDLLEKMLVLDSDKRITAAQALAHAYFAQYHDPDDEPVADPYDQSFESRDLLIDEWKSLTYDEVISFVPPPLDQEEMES

Inhibition at 1 µM, ≥ 50%:
CS(=O)(=O)N1CCC(Nc2ncc3cc(C(=O)c4ccccc4)c(O)cc3n2)CC1 [Compound 136, 6-Benzoyl-7-hydroxy-2-[1-(methylsulfonyl)piperidin-4-ylamino]quinazoline]
COc1cc2nc(NC(C)C)ncc2cc1-c1cc(N)ccc1C [Compound 229, 6-(5-Amino-2-methylphenyl)-2-isopropylamino-7-methoxyquinazoline]
COc1cc2nc(NC(C)C)ncc2cc1-c1ccc(F)cc1C [Compound 206, 6-(4-Fluoro-2-methylphenyl)-2-isopropylamino-7-methoxyquinazoline]
COc1cc2nc(NC(C)C)ncc2cc1-c1cc([N+](=O)[O-])ccc1CO [Compound 223, 6-(2-Hydroxymethyl-5-nitrophenyl)-2-isopropylamino-7-methoxyquinazoline]
COc1cc2nc(NC(C)C)ncc2cc1-c1ccccc1 [Compound 44, 2-Isopropylamino-7-methoxy-6-phenylquinazoline]
NC(=O)N1CCC(Nc2ncc3cc(-c4ccccc4Cl)c(O)cc3n2)CC1 [Compound 157, 2-(1-Carbamoylpiperidin-4-ylamino)-6-(2-chlorophenyl)-7-hydroxyquinazoline]
CC(C)Nc1ncc2cc(-c3ccccc3Cl)c(O)c(-c3c(F)cccc3F)c2n1 [Compound 102, 6-(2-Chlorophenyl)-8-(2,6-difluorophenyl)-7-hydroxy-2-(isopropylamino)quinazoline]
COc1cc2nc(NC3CCN(S(C)(=O)=O)CC3)ncc2cc1-c1ccccc1O [Compound 241, 6-(2-Hydroxyphenyl)-7-methoxy-2-[1-(methylsulfonyl)piperidin-4-ylamino]quinazoline]
CC(C)Nc1ncc2cc(-c3ccccc3Cl)c(-c3cccc(C(=O)O)c3)cc2n1 [Compound 42, 7-(3-Carboxyphenyl)-6-(2-chlorophenyl)-2-isopropylaminoquinazoline]
COc1cc2nc(NC(C)C)ncc2cc1C(=O)c1ccccc1 [Compound 109, 6-Benzoyl-2-isopropylamino-7-methoxyquinazoline]
Cc1ccc(NC(=O)C2CCC2)cc1-c1cc2cnc(NC(C)C)nc2cc1O [Compound 293, 6-(5-Cyclobutylcarbonylamino-2-methylphenyl)-7-hydroxy-2-(isopropylamino)quinazoline]
COc1cc2nc(NC3CCN(C(N)=O)CC3)ncc2cc1-c1ccccc1Cl [Compound 15, 2-(1-Carbamoylpiperidin-4-ylamino)-6-(2-chlorophenyl)-7-methoxyquinazoline]
CC(C)Nc1ncc2cc(-c3ccccc3Cl)c(OC(=O)c3ccccc3)cc2n1 [Compound 20, 7-Benzoyloxy-6-(2-chlorophenyl)-2-isopropylaminoquinazoline]
CC(C)Nc1ncc2cc(-c3ccccc3Cl)c(-c3cccc(Cl)c3)cc2n1 [Compound 43, 6-(2-Chlorophenyl)-7-(3-chlorophenyl)-2-isopropylaminoquinazoline]
COc1cc2nc(NC(C)C)ncc2cc1-c1cccc(C(C)=O)c1 [Compound 199, 6-(3-Acetylphenyl)-2-isopropylamino-7-methoxyquinazoline]
CC(C)Nc1ncc2cc(-c3cccc4ccccc34)c(O)cc2n1 [Compound 326, 7-Hydroxy-2-isopropylamino-6-(naphthalen-1-yl)quinazoline]
COc1c(-c2ccccc2Cl)cc2cnc(NC(C)C)nc2c1C(C)=O [Compound 77, 8-Acetyl-6-(2-chlorophenyl)-2-isopropylamino-7-methoxyquinazoline]
COc1cc2nc(NC(C)C)ncc2cc1-c1cccc(NC(=O)c2cc3ccccc3[nH]2)c1 [Compound 211, 6-{3-[(1H-indol-2-yl)carbonylamino]phenyl}-2-isopropylamino-7-methoxyquinazoline]
COc1cc2nc(NC3CCN(S(C)(=O)=O)CC3)ncc2cc1-c1cccc(O)c1 [Compound 240, 6-(3-Hydroxyphenyl)-7-methoxy-2-[1-(methylsulfonyl)piperidin-4-ylamino]quinazoline]
O=C(c1ccccc1)c1cc2cnc(NC3CCOCC3)nc2cc1O [Compound 138, 6-Benzoyl-7-hydroxy-2-(4-tetrahydropyranylamino)quinazoline]
COc1c(-c2ccccc2Cl)cc2cnc(NC(C)C)nc2c1C(=O)N1CCCCC1 [Compound 67, 6-(2-Chlorophenyl)-2-isopropylamino-7-methoxy-8-(piperidinocarbonyl)quinazoline]
CC(=O)Nc1cccc(-c2cc3cnc(NC(C)C)nc3cc2O)c1 [Compound 287, 6-[3-(Acetylamino)phenyl]-7-hydroxy-2-(isopropylamino)quinazoline]
CC(C)Nc1ncc2cc(C(=O)c3ccc(F)cc3)c(O)cc2n1 [Compound 131, 6-(4-Fluorobenzoyl)-7-hydroxy-2-(isopropylamino)quinazoline]
CCCOC(=O)c1c(OC)c(-c2ccccc2Cl)cc2cnc(NC(C)C)nc12 [Compound 62, 6-(2-Chlorophenyl)-2-isopropylamino-7-methoxy-8-(propoxycarbonyl)quinazoline]
CCC(=O)Nc1cccc(-c2cc3cnc(NC(C)C)nc3cc2O)c1 [Compound 297, 7-Hydroxy-2-isopropylamino-6-[3-(propionylamino)phenyl]quinazoline]
CCOC(=O)/C=C/c1c(OC)c(-c2ccccc2Cl)cc2cnc(NC(C)C)nc12 [Compound 73, 6-(2-Chlorophenyl)-8-[(E)-2-(ethoxycarbonyl)ethenyl]-7-methoxy-2-(isopropylamino)quinazoline]
CC(C)Nc1ncc2cc(-c3ccccc3Cl)c(OCc3ccccc3)cc2n1 [Compound 27, 7-Benzyloxy-6-(2-chlorophenyl)-2-isopropylaminoquinazoline]
CC(C)Nc1ncc2cc(-c3ccccc3Cl)c(O)c(I)c2n1 [Compound 88, 6-(2-Chlorophenyl)-7-hydroxy-8-iodo-2-(isopropylamino)quinazoline]
COc1cc2nc(NC3CCN(S(C)(=O)=O)CC3)ncc2cc1-c1ccccc1C(=O)O [Compound 242, 6-(2-Carboxyphenyl)-7-methoxy-2-[1-(methylsulfonyl)piperidin-4-ylamino]quinazoline]
COc1cc2nc(NC(C)C)ncc2cc1-c1cccc(OC(C)=O)c1 [Compound 202, 6-(3-Acetoxyphenyl)-2-isopropylamino-7-methoxyquinazoline]
Cc1ccccc1-c1ccc2nc(NC3CCN(S(C)(=O)=O)CC3)ncc2c1 [Compound 275, 6-(2-Methylphenyl)-2-[1-(methylsulfonyl)piperidin-4-ylamino]quinazoline]
COc1cc2nc(N[C@@H](C)C(C)C)ncc2cc1-c1ccccc1C [Compound 168, (S)-2-(3-methyl-2-butylamino)-7-methoxy-6-(2-methylphenyl)quinazoline]
Cc1ccc(NC(=O)c2ccccn2)cc1-c1ccc2nc(NC(C)C)ncc2c1 [Compound 262, 2-Isopropylamino-6-{2-methyl-5-(2-pyridylcarbonylamino)phenyl}quinazoline]
COc1cc2nc(NC3CCN(S(C)(=O)=O)C3)ncc2cc1-c1ccccc1Cl (stereo not drawn) [Compound 145, 6-(2-Chlorophenyl)-7-methoxy-2-[1-(methylsulfonyl)pyrrolidin-3-ylamino]quinazoline]
COc1cc2nc(NC(C)C)ncc2cc1-c1cc(NC(=O)c2ccc[nH]2)ccc1O [Compound 252, 6-{2-Hydroxy-5-[(1H-pyrrol-2-yl)carbonylamino]phenyl}-2-isopropylamino-7-methoxyquinazoline]
CC(=O)c1c(O)c(-c2ccccc2Cl)cc2cnc(NC(C)C)nc12 [Compound 78, 8-Acetyl-6-(2-chlorophenyl)-7-hydroxy-2-(isopropylamino)quinazoline]
